Literature values as cited in patent US20050202566A1, “Device and method for determining parameters” (priority 2002, published 2005).

System: thrombus formation
Conditions: ex vivo flow models using whole blood; with increasing shear

Row | SMILES | inhibition of thrombus formation as a function of shear
1 | O=C(O)COc1ccc(CCNS(=O)(=O)c2ccccc2)s1 [Linotroban] | increasingly inhibit thrombus formation
2 | CC(=O)Oc1ccccc1C(=O)O [aspirin] | increasingly inhibit thrombus formation
